# Experiments:
# Experiment in all cases: relative viability (nuclei count vs DMSO), 5 days (fraction); higher = more cells survive
# Metformin + Bortezomib = compound: CN(C)C(=N)NC(=N)N [Metformin] + CC(C)C[C@H](NC(=O)[C@H](Cc1ccccc1)NC(=O)c1cnccn1)B(O)O [Bortezomib] (partner 0.002 µM)
# How it was run: (§1)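 Values are medians from duplicate plates. Each reflects relative viability, defined as the nuclei count of treated wells over that of vehicle wells. Lung cancer cell lines in 1536-well plates were pin-tool dosed one day after seeding with one drug alone or with a fixed anchor-drug dose plus five library-drug doses (not always all listed) in √10 steps, then fixed, stained and imaged at 4× after 5 days.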
# Metformin + Dasatinib = compound: CN(C)C(=N)NC(=N)N [Metformin] + Cc1nc(Nc2ncc(C(=O)Nc3c(C)cccc3Cl)s2)cc(N2CCN(CCO)CC2)n1 [Dasatinib] (partner 0.075 µM)
# How it was run: as §1
# Apatinib + Trametinib = compound: N#CC1(c2ccc(NC(=O)c3cccnc3NCc3ccncc3)cc2)CCCC1 [Apatinib] + CC(=O)Nc1cccc(-n2c(=O)n(C3CC3)c(=O)c3c(Nc4ccc(I)cc4F)n(C)c(=O)c(C)c32)c1 [Trametinib] (partner 0.02 µM)
# How it was run: as §1
# Apatinib + Foretinib = compound: N#CC1(c2ccc(NC(=O)c3cccnc3NCc3ccncc3)cc2)CCCC1 [Apatinib] + COc1cc2c(Oc3ccc(NC(=O)C4(C(=O)Nc5ccc(F)cc5)CC4)cc3F)ccnc2cc1OCCCN1CCOCC1 [Foretinib] (partner 0.25 µM)
# How it was run: as §1
Cell Line,relative viability (Metformin + Bortezomib; first compound 10 µM),relative viability (Metformin + Bortezomib; first compound 31.62 µM),relative viability (Metformin + Bortezomib; first compound 100 µM),relative viability (Metformin + Bortezomib; first compound 316.23 µM),relative viability (Metformin + Bortezomib; first compound 1000 µM),relative viability (Metformin + Dasatinib; first compound 10 µM),relative viability (Metformin + Dasatinib; first compound 31.62 µM),relative viability (Metformin + Dasatinib; first compound 100 µM),relative viability (Metformin + Dasatinib; first compound 316.23 µM),relative viability (Metformin + Dasatinib; first compound 1000 µM),relative viability (Apatinib + Trametinib; first compound 0.08 µM),relative viability (Apatinib + Trametinib; first compound 0.253 µM),relative viability (Apatinib + Trametinib; first compound 0.8 µM),relative viability (Apatinib + Trametinib; first compound 2.53 µM),relative viability (Apatinib + Trametinib; first compound 8 µM),relative viability (Apatinib + Foretinib; first compound 0.08 µM),relative viability (Apatinib + Foretinib; first compound 0.253 µM),relative viability (Apatinib + Foretinib; first compound 0.8 µM),relative viability (Apatinib + Foretinib; first compound 2.53 µM),relative viability (Apatinib + Foretinib; first compound 8 µM)
NCI-H2126,1,1.11,1.09,1.09,1.09,0.548,0.557,0.556,0.372,0.337,0.605,0.562,0.569,0.538,0.415,1.28,1.12,1.23,0.954,0.987
CAL-12T,1.16,0.935,1.02,1.06,1.15,0.471,0.58,0.479,0.357,0.515,0.385,0.337,0.289,0.313,0.249,1.3,1.14,1.11,0.992,0.974
NCI-H358,–,–,–,–,–,0.143,0.127,0.118,0.212,0.14,0.144,0.12,0.179,0.159,0.131,0.83,0.912,0.671,0.685,0.696
HCC-44,0.861,0.858,0.88,0.88,0.856,–,–,–,–,–,1.08,0.993,1.07,1.09,0.811,–,–,–,–,–
EKVX,0.737,1.07,1.06,0.934,0.338,–,0.856,0.598,0.671,0.779,0.419,0.362,0.32,0.392,0.251,0.71,0.872,0.951,0.615,0.775
NCI-H1734,0.952,1.06,0.947,0.951,0.917,0.413,0.472,0.463,0.47,0.498,0.689,0.712,0.682,0.664,0.618,0.932,0.833,0.839,0.732,0.676
NCI-H1395,–,–,–,–,–,0.438,0.483,0.493,0.385,0.509,1.03,1.05,0.915,0.965,0.965,1.02,1.01,1.04,0.99,1.02
SW 900,–,–,–,–,–,0.844,0.989,0.73,0.825,0.766,0.757,0.801,0.772,0.623,0.642,1.06,0.921,0.822,0.584,0.605
NCI-H1975,0.335,0.333,0.411,0.375,0.433,0.558,0.417,0.553,0.418,0.402,0.352,0.3,0.417,0.424,0.36,1.13,0.907,0.84,0.862,0.783
Calu-6,0.842,0.957,1.06,0.817,0.66,–,–,–,–,–,–,–,–,–,–,0.994,0.915,0.799,0.766,0.791
EBC-1,0.699,0.666,0.618,0.541,0.59,–,–,–,–,–,–,–,–,–,–,0.111,0.0844,0.0979,0.0995,0.1
NCI-H1792,–,0.918,1.04,0.922,0.827,–,1.05,0.982,0.754,0.756,0.433,0.436,0.349,0.342,0.302,–,–,–,–,–
NCI-H596,1.05,1.13,1.3,1.27,1.21,0.622,0.67,0.757,0.696,0.655,0.89,0.831,0.803,0.696,0.722,0.771,0.888,0.624,0.99,0.853
NCI-H1650,0.208,0.206,0.232,0.231,0.231,0.443,0.456,0.366,0.301,0.369,0.607,0.659,0.395,0.515,0.482,–,1.07,0.959,0.923,0.81
NCI-H1944,–,–,–,–,–,0.22,0.227,0.252,0.254,0.246,0.395,0.429,0.318,0.403,0.29,0.869,0.942,0.691,0.807,0.603
HCC-827,–,0.952,1.12,0.919,0.925,–,0.317,0.356,0.317,0.316,0.525,0.533,0.492,0.519,0.425,1.05,1.04,1.01,1,0.763
NCI-H441,0.273,–,0.344,–,0.404,–,0.577,0.609,0.385,0.544,0.52,0.46,0.434,0.442,0.503,0.872,1.14,0.79,0.904,0.732
LCLC-103H,0.971,1.22,1.06,1.12,1.06,0.598,0.579,0.579,0.514,0.588,0.702,0.699,0.722,0.713,0.688,0.785,0.957,0.681,0.805,0.573
HARA,1.2,1.07,1.19,1.13,1.18,–,0.311,0.389,0.319,0.423,0.736,0.829,0.673,–,0.6,0.976,0.898,0.812,0.847,0.93
201T,–,1.15,1.1,1.06,1.12,–,0.579,0.63,0.53,0.559,0.731,0.725,0.68,0.729,0.607,1.15,1.11,1.05,1.06,0.813
NCI-H2009,0.694,1.16,1.12,1,1.09,0.503,0.522,0.483,0.401,0.467,0.341,0.285,0.31,0.25,0.229,1.39,1.18,1.17,1.07,0.853

Cell Line,relative viability (Metformin + Bortezomib; first compound 10 µM),relative viability (Metformin + Bortezomib; first compound 31.62 µM),relative viability (Metformin + Bortezomib; first compound 100 µM),relative viability (Metformin + Bortezomib; first compound 316.23 µM),relative viability (Metformin + Bortezomib; first compound 1000 µM),relative viability (Metformin + Dasatinib; first compound 10 µM),relative viability (Metformin + Dasatinib; first compound 31.62 µM),relative viability (Metformin + Dasatinib; first compound 100 µM),relative viability (Metformin + Dasatinib; first compound 316.23 µM),relative viability (Metformin + Dasatinib; first compound 1000 µM),relative viability (Apatinib + Trametinib; first compound 0.08 µM),relative viability (Apatinib + Trametinib; first compound 0.253 µM),relative viability (Apatinib + Trametinib; first compound 0.8 µM),relative viability (Apatinib + Trametinib; first compound 2.53 µM),relative viability (Apatinib + Trametinib; first compound 8 µM),relative viability (Apatinib + Foretinib; first compound 0.08 µM),relative viability (Apatinib + Foretinib; first compound 0.253 µM),relative viability (Apatinib + Foretinib; first compound 0.8 µM),relative viability (Apatinib + Foretinib; first compound 2.53 µM),relative viability (Apatinib + Foretinib; first compound 8 µM)
HCC-78,0.842,0.797,0.929,0.831,0.853,0.405,0.469,0.459,0.549,0.327,0.717,0.683,0.781,0.651,0.61,0.6,0.513,0.523,0.536,0.535
LCLC-97TM1,0.635,0.87,0.789,0.713,0.351,0.739,0.734,0.591,0.529,0.725,0.221,0.221,0.179,0.231,0.182,0.907,0.882,0.944,0.959,0.584
NCI-H661,0.867,0.881,1.36,0.917,1.06,–,0.895,0.995,0.828,0.893,0.606,0.594,0.571,0.532,0.463,1,0.93,1.04,1.02,0.941
NCI-H650,0.989,1.12,0.781,0.782,1.18,0.466,0.438,0.339,0.502,0.332,0.98,0.918,1.02,0.963,1.02,1.05,1.05,1.02,0.871,0.806
NCI-H1915,–,1.01,0.985,0.961,1.02,–,0.34,0.346,0.335,0.355,0.321,0.315,0.311,0.302,0.286,1.18,1.08,1.03,0.943,0.836
COR-L23,1.04,0.867,0.86,0.882,0.99,0.496,0.436,0.413,0.393,0.121,0.721,0.666,0.574,0.466,0.376,1.03,0.952,0.926,0.903,0.836
LK-2,–,–,–,–,–,0.447,0.424,0.381,0.383,0.558,0.605,0.671,0.75,0.793,0.395,1.37,1.13,1.13,1.1,0.645
IA-LM,–,1.14,1.03,0.893,0.624,–,–,–,–,–,–,–,–,–,–,1.33,1.13,1.09,0.703,0.38
ABC-1,–,0.294,0.334,0.277,0.344,0.414,0.73,0.659,0.316,0.31,–,–,–,–,–,–,1.27,0.961,1.1,1.02
NCI-H1648,–,–,–,–,–,–,–,–,–,–,0.466,0.467,0.39,0.537,0.335,–,–,–,–,–
NCI-H1623,–,–,–,–,–,0.376,0.518,0.511,0.627,0.478,–,–,–,–,–,0.912,0.826,0.844,0.802,0.777
NCI-H1563,0.917,0.866,1.02,0.877,0.954,0.535,0.573,0.574,0.545,0.489,–,–,–,–,–,0.897,0.996,0.884,0.812,0.897
NCI-H1703,0.389,0.394,0.453,0.42,0.505,–,–,–,–,–,–,–,–,–,–,0.37,0.345,0.31,0.297,0.37
NCI-H1299,1.09,1.06,1.08,1.06,1.06,–,–,–,–,–,–,–,–,–,–,1.14,1.13,1.09,1.09,0.941
NCI-H522,–,–,–,–,–,1.07,1.15,1.18,1.02,1.07,0.799,0.77,0.731,0.592,0.68,–,–,–,–,–
NCI-H2170,–,–,–,–,–,0.514,0.625,0.619,0.664,0.634,0.942,0.881,0.857,0.822,0.737,1.04,0.958,0.978,0.983,0.846
SK-MES-1,–,–,–,–,–,0.252,0.41,0.338,0.314,0.321,0.585,0.642,0.567,0.64,0.514,1.02,0.935,0.967,0.838,0.896
NCI-H2342,–,–,–,–,–,0.315,0.291,0.326,0.285,0.356,0.918,0.777,0.916,0.846,0.834,1.01,1.05,1.02,0.983,0.936
A549,–,–,–,–,–,–,–,–,–,–,–,–,–,–,–,0.945,0.933,1,0.887,0.855
NCI-H1793,–,–,–,–,–,0.38,–,0.42,0.342,0.515,0.432,0.449,0.443,0.34,0.301,0.761,0.585,0.507,0.601,0.475

# Source: the supplement of paper PMC10307832
